According to patent US11865126B2, “Method for treating anxiety disorders, headache disorders, and eating disorders with psilocybin” (priority 2019, dated 2024):

Test system: healthy subjects
Assay: Symptom Checklist-90 item (SCL-90)
Type: in vivo, human
Description: In some embodiments, the Symptom Checklist-90 item (SCL-90) questionnaire is used to evaluate the safety and/or efficacy of psilocybin. The SCL-90 is a relatively brief self-report psychometric instrument designed to evaluate a broad range of psychological problems and symptoms of psychopathology. In some embodiments, the SCL-90 is used to assess somatization, obsessive-compulsive behaviors, interpersonal sensitivity, depression, anxiety, hostility, phobic anxiety, paranoid ideation, and psychoticism of a subject treated according to the methods of the disclosure. The 90 items in the questionnaire are scored on a 5-point Likert scale, indicating the rate of occurrence of the symptom during the time reference. In some embodiments, after treating according to the methods of the disclosure, a subject's SCL-90 score decreases by about 5% to about 100%, for example, by about 5%, about 10%, about 15%, about 20%, about 25%, about 30%, about 35%, about 40%, about 45%, about 50%, about 55%, about 60%, about 65%, about 70%, about 75%, about 80%, about 85%, about 90%, about 95%, or about 100%.
The Neuroticism Extraversion Openness-Five Factor Inventory (NEO-FFI) and Symptom Checklist-90 Item (SCL-90) were administered. Details of the MMRM applied to the change from baseline scores for the NEO-FFI and SCL-90 are provided below in Table 28.

Compound: CN(C)CCc1c[nH]c2cccc(OP(=O)(O)O)c12 [psilocybin]
- SCL-90 - somatisation change from baseline, difference Psilocybin 10 mg - Placebo (Day 7): 0.1
- SCL-90 - somatisation change from baseline, difference Psilocybin 25 mg - Placebo (Day 7): 0.1
- SCL-90 - somatisation change from baseline, difference Psilocybin (25 mg-10 mg) (Day 7): −0.0
- SCL-90 anger hostility change from baseline, difference Psilocybin 10 mg - Placebo (Day 7): −0.0
- SCL-90 anger hostility change from baseline, difference Psilocybin 25 mg - Placebo (Day 7): −0.0
- SCL-90 anger hostility change from baseline, difference Psilocybin (25 mg-10 mg) (Day 7): 0.0
- SCL-90 anxiety change from baseline, difference Psilocybin 10 mg - Placebo (Day 7): −0.0
- SCL-90 anxiety change from baseline, difference Psilocybin 25 mg - Placebo (Day 7): 0.0
- SCL-90 anxiety change from baseline, difference Psilocybin (25 mg-10 mg) (Day 7): 0.0
- SCL-90 depression change from baseline, difference Psilocybin 10 mg - Placebo (Day 7): 0.0
- SCL-90 depression change from baseline, difference Psilocybin 25 mg - Placebo (Day 7): 0.0
- SCL-90 depression change from baseline, difference Psilocybin (25 mg-10 mg) (Day 7): −0.0
- SCL-90 interpersonal sensitivity change from baseline, difference Psilocybin 10 mg - Placebo (Day 7): −0.0
- SCL-90 interpersonal sensitivity change from baseline, difference Psilocybin 25 mg - Placebo (Day 7): 0.0
- SCL-90 interpersonal sensitivity change from baseline, difference Psilocybin (25 mg-10 mg) (Day 7): 0.1
- SCL-90 obsessive compulsive change from baseline, difference Psilocybin 10 mg - Placebo (Day 7): 0.1
- SCL-90 obsessive compulsive change from baseline, difference Psilocybin 25 mg - Placebo (Day 7): 0.1
- SCL-90 obsessive compulsive change from baseline, difference Psilocybin (25 mg-10 mg) (Day 7): −0.0
- SCL-90 paranoid ideation change from baseline, difference Psilocybin 10 mg - Placebo (Day 7): 0.0
- SCL-90 paranoid ideation change from baseline, difference Psilocybin 25 mg - Placebo (Day 7): 0.1
- SCL-90 paranoid ideation change from baseline, difference Psilocybin (25 mg-10 mg) (Day 7): 0.1
- SCL-90 phobic anxiety change from baseline, difference Psilocybin 10 mg - Placebo (Day 7): −0.0
- SCL-90 phobic anxiety change from baseline, difference Psilocybin 25 mg - Placebo (Day 7): 0.0
- SCL-90 phobic anxiety change from baseline, difference Psilocybin (25 mg-10 mg) (Day 7): 0.0
- SCL-90 psychoticism change from baseline, difference Psilocybin 10 mg - Placebo (Day 7): 0.0
- SCL-90 psychoticism change from baseline, difference Psilocybin 25 mg - Placebo (Day 7): 0.0
- SCL-90 psychoticism change from baseline, difference Psilocybin (25 mg-10 mg) (Day 7): 0.0
- SCL-90 - somatisation change from baseline, difference Psilocybin 10 mg - Placebo (Day 84): 0.0
- SCL-90 - somatisation change from baseline, difference Psilocybin 25 mg - Placebo (Day 84): 0.0
- SCL-90 - somatisation change from baseline, difference Psilocybin (25 mg-10 mg) (Day 84): 0.0
- SCL-90 anger hostility change from baseline, difference Psilocybin 10 mg - Placebo (Day 84): −0.0
- SCL-90 anger hostility change from baseline, difference Psilocybin 25 mg - Placebo (Day 84): −0.0
- SCL-90 anger hostility change from baseline, difference Psilocybin (25 mg-10 mg) (Day 84): −0.0
- SCL-90 anxiety change from baseline, difference Psilocybin 10 mg - Placebo (Day 84): −0.1
- SCL-90 anxiety change from baseline, difference Psilocybin 25 mg - Placebo (Day 84): −0.0
- SCL-90 anxiety change from baseline, difference Psilocybin (25 mg-10 mg) (Day 84): 0.0
- SCL-90 depression change from baseline, difference Psilocybin 10 mg - Placebo (Day 84): 0.0
- SCL-90 depression change from baseline, difference Psilocybin 25 mg - Placebo (Day 84): 0.0
- SCL-90 depression change from baseline, difference Psilocybin (25 mg-10 mg) (Day 84): 0.0
- SCL-90 interpersonal sensitivity change from baseline, difference Psilocybin 10 mg - Placebo (Day 84): −0.1
- SCL-90 interpersonal sensitivity change from baseline, difference Psilocybin 25 mg - Placebo (Day 84): −0.0
- SCL-90 interpersonal sensitivity change from baseline, difference Psilocybin (25 mg-10 mg) (Day 84): 0.0
- SCL-90 obsessive compulsive change from baseline, difference Psilocybin 10 mg - Placebo (Day 84): 0.1
- SCL-90 obsessive compulsive change from baseline, difference Psilocybin 25 mg - Placebo (Day 84): 0.0
- SCL-90 obsessive compulsive change from baseline, difference Psilocybin (25 mg-10 mg) (Day 84): −0.1
- SCL-90 paranoid ideation change from baseline, difference Psilocybin 10 mg - Placebo (Day 84): 0.1
- SCL-90 paranoid ideation change from baseline, difference Psilocybin 25 mg - Placebo (Day 84): 0.1
- SCL-90 paranoid ideation change from baseline, difference Psilocybin (25 mg-10 mg) (Day 84): 0.0
- SCL-90 phobic anxiety change from baseline, difference Psilocybin 10 mg - Placebo (Day 84): −0.0
- SCL-90 phobic anxiety change from baseline, difference Psilocybin 25 mg - Placebo (Day 84): 0.0
- SCL-90 phobic anxiety change from baseline, difference Psilocybin (25 mg-10 mg) (Day 84): 0.0
- SCL-90 psychoticism change from baseline, difference Psilocybin 10 mg - Placebo (Day 84): −0.0
- SCL-90 psychoticism change from baseline, difference Psilocybin 25 mg - Placebo (Day 84): −0.0
- SCL-90 psychoticism change from baseline, difference Psilocybin (25 mg-10 mg) (Day 84): 0.0
